Assay results reported in ChEMBL document CHEMBL5120927, “LEGO-Lipophosphonoxins: A Novel Approach in Designing Membrane Targeting Antimicrobials” (J Med Chem, 2022).

System: not listed separately
Assay: Cytotoxicity against human HepG2 cells assessed as reduction in cell viability
Format: toxicity, cell-based
Settings: not given

SMILES	CC50 [µM]
CCCCC/C=C\CCOP(=O)(CCN(CCCN)CCCN)OCCCCCCOP(=O)(CCN(CCCN)CCCN)OCC/C=C\CCCCC.Cl.Cl.Cl.Cl.Cl.Cl (stereo not drawn)	30.8

System: Escherichia coli
Assay: Antibacterial activity against multidrug-resistant Escherichia coli CE5556 expressing CTX-M-15 assessed as reduction in microbial growth incubated for 24 hrs by microdilution assay
Format: functional
Settings: not given

SMILES	MIC [µg/mL]
CCCCC/C=C\CCOP(=O)(CCN(CCCN)CCCN)OCCCCCCOP(=O)(CCN(CCCN)CCCN)OCC/C=C\CCCCC.Cl.Cl.Cl.Cl.Cl.Cl (stereo not drawn)	1
Cl.Cl.Cl.Cl.Cl.Cl.NCCCN(CCCN)CCP(=O)(OCCCCCCCCOP(=O)(CCN(CCCN)CCCN)OCCc1ccccc1)OCCc1ccccc1 (stereo not drawn)	128
CC/C=C\CCCOP(=O)(CCN(CCCN)CCCN)OCCCOP(=O)(CCN(CCCN)CCCN)OCCC/C=C\CC.Cl.Cl.Cl.Cl.Cl.Cl (stereo not drawn)	> 128
CC(C)COP(=O)(CCN(CCCN)CCCN)OCCCCCCCCOP(=O)(CCN(CCCN)CCCN)OCC(C)C.Cl.Cl.Cl.Cl.Cl.Cl (stereo not drawn)	> 128

System: Pseudomonas aeruginosa
Assay: Antibacterial activity against multidrug-resistant Pseudomonas aeruginosa assessed as reduction in microbial growth incubated for 24 hrs by microdilution assay
Format: functional
Settings: not given

SMILES	MIC [µg/mL]
CCCCC/C=C\CCOP(=O)(CCN(CCCN)CCCN)OCCCCCCOP(=O)(CCN(CCCN)CCCN)OCC/C=C\CCCCC.Cl.Cl.Cl.Cl.Cl.Cl (stereo not drawn)	2
Cl.Cl.Cl.Cl.Cl.Cl.NCCCN(CCCN)CCP(=O)(OCCCCCCCCOP(=O)(CCN(CCCN)CCCN)OCCc1ccccc1)OCCc1ccccc1 (stereo not drawn)	128
CC/C=C\CCCOP(=O)(CCN(CCCN)CCCN)OCCCOP(=O)(CCN(CCCN)CCCN)OCCC/C=C\CC.Cl.Cl.Cl.Cl.Cl.Cl (stereo not drawn)	> 128
CC(C)COP(=O)(CCN(CCCN)CCCN)OCCCCCCCCOP(=O)(CCN(CCCN)CCCN)OCC(C)C.Cl.Cl.Cl.Cl.Cl.Cl (stereo not drawn)	> 128

System: Staphylococcus aureus
Assay: Antibacterial activity against Staphylococcus aureus ATCC 29213 = CCM 4223 assessed as inhibition of bacterial growth incubated for 24 hrs in presence of BSA by microdilution assay
Format: functional
Settings: not given

SMILES	MIC [µg/mL]
CCCCC/C=C\CCOP(=O)(CCN(CCCN)CCCN)OCCCCCCOP(=O)(CCN(CCCN)CCCN)OCC/C=C\CCCCC.Cl.Cl.Cl.Cl.Cl.Cl (stereo not drawn)	2
Cl.Cl.Cl.Cl.Cl.Cl.NCCCN(CCCN)CCP(=O)(OCCCCCCCCOP(=O)(CCN(CCCN)CCCN)OCCc1ccccc1)OCCc1ccccc1 (stereo not drawn)	32
CC/C=C\CCCOP(=O)(CCN(CCCN)CCCN)OCCCOP(=O)(CCN(CCCN)CCCN)OCCC/C=C\CC.Cl.Cl.Cl.Cl.Cl.Cl (stereo not drawn)	> 128
CC(C)COP(=O)(CCN(CCCN)CCCN)OCCCCCCCCOP(=O)(CCN(CCCN)CCCN)OCC(C)C.Cl.Cl.Cl.Cl.Cl.Cl (stereo not drawn)	> 128

System: Enterococcus faecium
Assay: Antibacterial activity against vancomycin resistant Enterococcus faecium 419/ANA assessed as reduction in microbial growth incubated for 24 hrs by microdilution assay
Format: functional
Settings: not given

SMILES	MIC [µg/mL]
CCCCC/C=C\CCOP(=O)(CCN(CCCN)CCCN)OCCCCCCOP(=O)(CCN(CCCN)CCCN)OCC/C=C\CCCCC.Cl.Cl.Cl.Cl.Cl.Cl (stereo not drawn)	8
Cl.Cl.Cl.Cl.Cl.Cl.NCCCN(CCCN)CCP(=O)(OCCCCCCCCOP(=O)(CCN(CCCN)CCCN)OCCc1ccccc1)OCCc1ccccc1 (stereo not drawn)	128
CC/C=C\CCCOP(=O)(CCN(CCCN)CCCN)OCCCOP(=O)(CCN(CCCN)CCCN)OCCC/C=C\CC.Cl.Cl.Cl.Cl.Cl.Cl (stereo not drawn)	> 128
CC(C)COP(=O)(CCN(CCCN)CCCN)OCCCCCCCCOP(=O)(CCN(CCCN)CCCN)OCC(C)C.Cl.Cl.Cl.Cl.Cl.Cl (stereo not drawn)	> 128

System: Escherichia coli
Assay: Antibacterial activity against Escherichia coli ATCC 25922 = CCM 3954 assessed as inhibition of bacterial growth incubated for 24 hrs by microdilution assay
Format: functional
Settings: not given

SMILES	MIC [µg/mL]
CCCCC/C=C\CCOP(=O)(CCN(CCCN)CCCN)OCCCCCCOP(=O)(CCN(CCCN)CCCN)OCC/C=C\CCCCC.Cl.Cl.Cl.Cl.Cl.Cl (stereo not drawn)	1
Cl.Cl.Cl.Cl.Cl.Cl.NCCCN(CCCN)CCP(=O)(OCCCCCCCCOP(=O)(CCN(CCCN)CCCN)OCCc1ccccc1)OCCc1ccccc1 (stereo not drawn)	128
CC/C=C\CCCOP(=O)(CCN(CCCN)CCCN)OCCCOP(=O)(CCN(CCCN)CCCN)OCCC/C=C\CC.Cl.Cl.Cl.Cl.Cl.Cl (stereo not drawn)	> 128
CC(C)COP(=O)(CCN(CCCN)CCCN)OCCCCCCCCOP(=O)(CCN(CCCN)CCCN)OCC(C)C.Cl.Cl.Cl.Cl.Cl.Cl (stereo not drawn)	> 128

System: Pseudomonas aeruginosa
Assay: Antibacterial activity against Pseudomonas aeruginosa ATCC 27853 = CCM 3955 assessed as inhibition of bacterial growth incubated for 24 hrs by microdilution assay
Format: functional
Settings: not given

SMILES	MIC [µg/mL]
CCCCC/C=C\CCOP(=O)(CCN(CCCN)CCCN)OCCCCCCOP(=O)(CCN(CCCN)CCCN)OCC/C=C\CCCCC.Cl.Cl.Cl.Cl.Cl.Cl (stereo not drawn)	2
Cl.Cl.Cl.Cl.Cl.Cl.NCCCN(CCCN)CCP(=O)(OCCCCCCCCOP(=O)(CCN(CCCN)CCCN)OCCc1ccccc1)OCCc1ccccc1 (stereo not drawn)	128
CC/C=C\CCCOP(=O)(CCN(CCCN)CCCN)OCCCOP(=O)(CCN(CCCN)CCCN)OCCC/C=C\CC.Cl.Cl.Cl.Cl.Cl.Cl (stereo not drawn)	> 128
CC(C)COP(=O)(CCN(CCCN)CCCN)OCCCCCCCCOP(=O)(CCN(CCCN)CCCN)OCC(C)C.Cl.Cl.Cl.Cl.Cl.Cl (stereo not drawn)	> 128

System: Staphylococcus aureus
Assay: Antibacterial activity against Staphylococcus aureus ATCC 29213 = CCM 4223 assessed as inhibition of bacterial growth incubated for 24 hrs by microdilution assay
Format: functional
Settings: not given

SMILES	MIC [µg/mL]
CCCCC/C=C\CCOP(=O)(CCN(CCCN)CCCN)OCCCCCCOP(=O)(CCN(CCCN)CCCN)OCC/C=C\CCCCC.Cl.Cl.Cl.Cl.Cl.Cl (stereo not drawn)	0.5
Cl.Cl.Cl.Cl.Cl.Cl.NCCCN(CCCN)CCP(=O)(OCCCCCCCCOP(=O)(CCN(CCCN)CCCN)OCCc1ccccc1)OCCc1ccccc1 (stereo not drawn)	16
CC/C=C\CCCOP(=O)(CCN(CCCN)CCCN)OCCCOP(=O)(CCN(CCCN)CCCN)OCCC/C=C\CC.Cl.Cl.Cl.Cl.Cl.Cl (stereo not drawn)	128
CC(C)COP(=O)(CCN(CCCN)CCCN)OCCCCCCCCOP(=O)(CCN(CCCN)CCCN)OCC(C)C.Cl.Cl.Cl.Cl.Cl.Cl (stereo not drawn)	> 128

System: not listed separately
Assay: Gradient chromatographic hydrophobicity index of the compound at pH 3.7 by HPLC analysis
Format: ADME
Settings: not given

SMILES	CHI
CCCCC/C=C\CCOP(=O)(CCN(CCCN)CCCN)OCCCCCCOP(=O)(CCN(CCCN)CCCN)OCC/C=C\CCCCC.Cl.Cl.Cl.Cl.Cl.Cl (stereo not drawn)	37.5
Cl.Cl.Cl.Cl.Cl.Cl.NCCCN(CCCN)CCP(=O)(OCCCCCCCCOP(=O)(CCN(CCCN)CCCN)OCCc1ccccc1)OCCc1ccccc1 (stereo not drawn)	27.3
CC/C=C\CCCOP(=O)(CCN(CCCN)CCCN)OCCCOP(=O)(CCN(CCCN)CCCN)OCCC/C=C\CC.Cl.Cl.Cl.Cl.Cl.Cl (stereo not drawn)	25.1
CC(C)COP(=O)(CCN(CCCN)CCCN)OCCCCCCCCOP(=O)(CCN(CCCN)CCCN)OCC(C)C.Cl.Cl.Cl.Cl.Cl.Cl (stereo not drawn)	25.2

System: Staphylococcus epidermidis
Assay: Antibacterial activity against Staphylococcus epidermidis CCM 7221 assessed as inhibition of bacterial growth incubated for 24 hrs by microdilution assay
Format: functional
Settings: not given

SMILES	MIC [µg/mL]
CCCCC/C=C\CCOP(=O)(CCN(CCCN)CCCN)OCCCCCCOP(=O)(CCN(CCCN)CCCN)OCC/C=C\CCCCC.Cl.Cl.Cl.Cl.Cl.Cl (stereo not drawn)	0.5
Cl.Cl.Cl.Cl.Cl.Cl.NCCCN(CCCN)CCP(=O)(OCCCCCCCCOP(=O)(CCN(CCCN)CCCN)OCCc1ccccc1)OCCc1ccccc1 (stereo not drawn)	8
CC/C=C\CCCOP(=O)(CCN(CCCN)CCCN)OCCCOP(=O)(CCN(CCCN)CCCN)OCCC/C=C\CC.Cl.Cl.Cl.Cl.Cl.Cl (stereo not drawn)	32
CC(C)COP(=O)(CCN(CCCN)CCCN)OCCCCCCCCOP(=O)(CCN(CCCN)CCCN)OCC(C)C.Cl.Cl.Cl.Cl.Cl.Cl (stereo not drawn)	32

System: Staphylococcus aureus
Assay: Antibacterial activity against methicillin resistant Staphylococcus aureus 4591/A assessed as reduction in microbial growth incubated for 24 hrs by microdilution assay
Format: functional
Settings: not given

SMILES	MIC [µg/mL]
CCCCC/C=C\CCOP(=O)(CCN(CCCN)CCCN)OCCCCCCOP(=O)(CCN(CCCN)CCCN)OCC/C=C\CCCCC.Cl.Cl.Cl.Cl.Cl.Cl (stereo not drawn)	1
Cl.Cl.Cl.Cl.Cl.Cl.NCCCN(CCCN)CCP(=O)(OCCCCCCCCOP(=O)(CCN(CCCN)CCCN)OCCc1ccccc1)OCCc1ccccc1 (stereo not drawn)	16
CC/C=C\CCCOP(=O)(CCN(CCCN)CCCN)OCCCOP(=O)(CCN(CCCN)CCCN)OCCC/C=C\CC.Cl.Cl.Cl.Cl.Cl.Cl (stereo not drawn)	64
CC(C)COP(=O)(CCN(CCCN)CCCN)OCCCCCCCCOP(=O)(CCN(CCCN)CCCN)OCC(C)C.Cl.Cl.Cl.Cl.Cl.Cl (stereo not drawn)	> 128

System: Escherichia coli
Assay: Antibacterial activity against Escherichia coli ATCC 25922 = CCM 3954 assessed as inhibition of bacterial growth incubated for 24 hrs in presence of BSA by microdilution assay
Format: functional
Settings: not given

SMILES	MIC [µg/mL]
CCCCC/C=C\CCOP(=O)(CCN(CCCN)CCCN)OCCCCCCOP(=O)(CCN(CCCN)CCCN)OCC/C=C\CCCCC.Cl.Cl.Cl.Cl.Cl.Cl (stereo not drawn)	0.5
Cl.Cl.Cl.Cl.Cl.Cl.NCCCN(CCCN)CCP(=O)(OCCCCCCCCOP(=O)(CCN(CCCN)CCCN)OCCc1ccccc1)OCCc1ccccc1 (stereo not drawn)	128
CC/C=C\CCCOP(=O)(CCN(CCCN)CCCN)OCCCOP(=O)(CCN(CCCN)CCCN)OCCC/C=C\CC.Cl.Cl.Cl.Cl.Cl.Cl (stereo not drawn)	> 128
CC(C)COP(=O)(CCN(CCCN)CCCN)OCCCCCCCCOP(=O)(CCN(CCCN)CCCN)OCC(C)C.Cl.Cl.Cl.Cl.Cl.Cl (stereo not drawn)	> 128

System: Enterococcus faecalis
Assay: Antibacterial activity against Enterococcus faecalis ATCC 29212 = CCM 4224 assessed as inhibition of bacterial growth incubated for 24 hrs by microdilution assay
Format: functional
Settings: not given

SMILES	MIC [µg/mL]
CCCCC/C=C\CCOP(=O)(CCN(CCCN)CCCN)OCCCCCCOP(=O)(CCN(CCCN)CCCN)OCC/C=C\CCCCC.Cl.Cl.Cl.Cl.Cl.Cl (stereo not drawn)	2
Cl.Cl.Cl.Cl.Cl.Cl.NCCCN(CCCN)CCP(=O)(OCCCCCCCCOP(=O)(CCN(CCCN)CCCN)OCCc1ccccc1)OCCc1ccccc1 (stereo not drawn)	128
CC/C=C\CCCOP(=O)(CCN(CCCN)CCCN)OCCCOP(=O)(CCN(CCCN)CCCN)OCCC/C=C\CC.Cl.Cl.Cl.Cl.Cl.Cl (stereo not drawn)	> 128
CC(C)COP(=O)(CCN(CCCN)CCCN)OCCCCCCCCOP(=O)(CCN(CCCN)CCCN)OCC(C)C.Cl.Cl.Cl.Cl.Cl.Cl (stereo not drawn)	> 128

System: not listed separately
Assay: Hemolytic activity in human RBC assessed as haemoglobin release measured after 3 hr
Format: toxicity, cell-based, Erythrocyte
Settings: red blood cells (erythrocytes)

SMILES	HC50 at 3 h [µg/mL]
CCCCC/C=C\CCOP(=O)(CCN(CCCN)CCCN)OCCCCCCOP(=O)(CCN(CCCN)CCCN)OCC/C=C\CCCCC.Cl.Cl.Cl.Cl.Cl.Cl (stereo not drawn)	262
Cl.Cl.Cl.Cl.Cl.Cl.NCCCN(CCCN)CCP(=O)(OCCCCCCCCOP(=O)(CCN(CCCN)CCCN)OCCc1ccccc1)OCCc1ccccc1 (stereo not drawn)	> 200
CC/C=C\CCCOP(=O)(CCN(CCCN)CCCN)OCCCOP(=O)(CCN(CCCN)CCCN)OCCC/C=C\CC.Cl.Cl.Cl.Cl.Cl.Cl (stereo not drawn)	> 200
CC(C)COP(=O)(CCN(CCCN)CCCN)OCCCCCCCCOP(=O)(CCN(CCCN)CCCN)OCC(C)C.Cl.Cl.Cl.Cl.Cl.Cl (stereo not drawn)	> 1000
